Counter-ions that a name gives are not always drawn.
How the values were obtained:
oral lavage [1] = experiment: Formation of formazan dyes: oral lavage and diaphorase, not malate (TABLE 11); format: biochemical, human
diaphorase [2] = experiment: Formation of formazan dyes: NADH, diaphorase and malate (TABLE 8); format: biochemical, Clostridium kluyveri; conditions: NADH, diaphorase and malate
Malate dehydrogenase [3] = molecular target: T1, Malate dehydrogenase (Sus scrofa, UniProt P00346); experiment: Formation of formazan dyes: Malate dehydrogenase and 1-Methoxy PMS, absence of malate (TABLE 17); format: biochemical, pig heart; set-up: L-malate dehydrogenase (pig heart); purchased Sigma-Aldrich 10127248001 / 10127914001; conditions: Malate dehydrogenase and 1-Methoxy PMS, absence of malate, mean of three experiments
T1 sequence (P00346 25-338): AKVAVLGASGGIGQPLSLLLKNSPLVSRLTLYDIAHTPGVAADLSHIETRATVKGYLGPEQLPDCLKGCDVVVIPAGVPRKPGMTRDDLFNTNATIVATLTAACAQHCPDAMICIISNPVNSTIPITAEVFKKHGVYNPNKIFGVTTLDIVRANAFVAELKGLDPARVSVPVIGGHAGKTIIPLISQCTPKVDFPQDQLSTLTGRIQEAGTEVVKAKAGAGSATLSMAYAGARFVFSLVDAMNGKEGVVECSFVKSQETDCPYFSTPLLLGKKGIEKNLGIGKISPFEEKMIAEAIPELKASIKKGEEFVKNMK

[4] = Formation of formazan dyes: NADH, malate and 1-methoxy PMS (TABLE 16); format: biochemical; conditions: NADH, malate and 1-methoxy PMS, mean of three experiments
oral lavage [5] = experiment: Formation of formazan dyes: oral lavage and 1-Methoxy PMS, absence of malate (TABLE 19); format: biochemical, human; conditions: oral lavage and 1-Methoxy PMS, absence of malate, mean of three experiments
diaphorase [6] = experiment: Formation of formazan dyes: only diaphorase and malate (TABLE 14); format: biochemical, Clostridium kluyveri; conditions: mean of three experiments
[7] = tested on: Malate dehydrogenase and diaphorase; experiment: Formation of formazan dyes: Malate dehydrogenase and diaphorase, absence of malate (TABLE 9); format: biochemical, pig heart
Malate dehydrogenase [8] = molecular target: T1, Malate dehydrogenase; experiment: Formation of formazan dyes: Malate dehydrogenase, malate and 1-Methoxy PMS (TABLE 18); format: biochemical, pig heart; set-up: L-malate dehydrogenase (pig heart); purchased Sigma-Aldrich 10127248001 / 10127914001; conditions: Malate dehydrogenase, malate and 1-Methoxy PMS, mean of three experiments
diaphorase [9] = experiment: Formation of formazan dyes: only diaphorase, not malate (TABLE 13); format: biochemical, Clostridium kluyveri; conditions: mean of three experiments
[10] = Formation of formazan dyes: control buffer, malate and 1-Methoxy PMS (TABLE 22); format: biochemical; conditions: control buffer, malate and 1-Methoxy PMS, mean of three experiments
oral lavage [11] = experiment: Formation of formazan dyes: oral lavage, malate and 1-Methoxy PMS (TABLE 20); format: biochemical, human; conditions: oral lavage, malate and 1-Methoxy PMS, mean of three experiments
diaphorase [12] = experiment: Formation of formazan dyes: NADH and diaphorase, absence of malate (TABLE 7); format: biochemical, Clostridium kluyveri; conditions: NADH and diaphorase, absence of malate

Formation of formazan dyes, absorbance, Means 0 h (oral lavage [1]; oral lavage and diaphorase, not malate, 0 h): 0.70
Formation of formazan dyes, absorbance, Means 1 h (oral lavage [1]; oral lavage and diaphorase, not malate, 1 h): 0.86
Formation of formazan dyes, absorbance, Means 2 h (oral lavage [1]; oral lavage and diaphorase, not malate, 2 h): 0.91
Formation of formazan dyes, absorbance, Means 3 h (oral lavage [1]; oral lavage and diaphorase, not malate, 3 h): 1.00
Formation of formazan dyes, absorbance, Means 4 h (oral lavage [1]; oral lavage and diaphorase, not malate, 4 h): 1.13
Formation of formazan dyes, absorbance, Means 6 h (oral lavage [1]; oral lavage and diaphorase, not malate, 6 h): 1.18
Formation of formazan dyes, absorbance, Means 8 h (oral lavage [1]; oral lavage and diaphorase, not malate, 8 h): 1.21
Formation of formazan dyes, absorbance, Means 10 h (oral lavage [1]; oral lavage and diaphorase, not malate, 10 h): 1.25
Formation of formazan dyes, absorbance, Means 12 h (oral lavage [1]; oral lavage and diaphorase, not malate, 12 h): 1.27
Formation of formazan dyes, absorbance, Means 0 h (diaphorase [2]; 0 h): 3.01
Formation of formazan dyes, absorbance, Means 1 h (diaphorase [2]; 1 h): 3.01
Formation of formazan dyes, absorbance, Means 2 h (diaphorase [2]; 2 h): 3.00
Formation of formazan dyes, absorbance, Means 3 h (diaphorase [2]; 3 h): 3.00
Formation of formazan dyes, absorbance, Means 4 h (diaphorase [2]; 4 h): 3.07
Formation of formazan dyes, absorbance, Means 6 h (diaphorase [2]; 6 h): 3.09
Formation of formazan dyes, absorbance, Means 8 h (diaphorase [2]; 8 h): 3.17
Formation of formazan dyes, absorbance, Means 10 h (diaphorase [2]; 10 h): 3.08
Formation of formazan dyes, absorbance, Means 12 h (diaphorase [2]; 12 h): 3.20
Absorbance, formation of formazan dyes (Means) (Malate dehydrogenase [3]; 0 h): 0.34
Absorbance, formation of formazan dyes (Means) (Malate dehydrogenase [3]; 1 h): 0.36
Absorbance, formation of formazan dyes (Means) (Malate dehydrogenase [3]; 2 h): 0.33
Absorbance, formation of formazan dyes (Means) (Malate dehydrogenase [3]; 3 h): 0.33
Absorbance, formation of formazan dyes (Means) (Malate dehydrogenase [3]; 4 h): 0.41
Absorbance, formation of formazan dyes (Means) (Malate dehydrogenase [3]; 6 h): 0.48
Absorbance, formation of formazan dyes (Means) (Malate dehydrogenase [3]; 8 h): 0.48
Absorbance, formation of formazan dyes (Means) (Malate dehydrogenase [3]; 10 h): 0.52
Absorbance, formation of formazan dyes (Means) (Malate dehydrogenase [3]; 12 h): 0.51
Absorbance, formation of formazan dyes (Means) (diaphorase [6]; 0 h): 0.16
Absorbance, formation of formazan dyes (Means) (diaphorase [6]; 1 h): 0.22
Absorbance, formation of formazan dyes (Means) (diaphorase [6]; 2 h): 0.27
Absorbance, formation of formazan dyes (Means) (diaphorase [6]; 3 h): 0.32
Absorbance, formation of formazan dyes (Means) (diaphorase [6]; 4 h): 0.46
Absorbance, formation of formazan dyes (Means) (diaphorase [6]; 6 h): 0.57
Absorbance, formation of formazan dyes (Means) (diaphorase [6]; 8 h): 0.68
Absorbance, formation of formazan dyes (Means) (diaphorase [6]; 10 h): 0.79
Absorbance, formation of formazan dyes (Means) (diaphorase [6]; 12 h): 0.93
Formation of formazan dyes, absorbance, Means 0 h ([7]; Malate dehydrogenase and diaphorase, absence of malate, 0 h): 0.17
Formation of formazan dyes, absorbance, Means 1 h ([7]; Malate dehydrogenase and diaphorase, absence of malate, 1 h): 0.24
Formation of formazan dyes, absorbance, Means 2 h ([7]; Malate dehydrogenase and diaphorase, absence of malate, 2 h): 0.22
Formation of formazan dyes, absorbance, Means 3 h ([7]; Malate dehydrogenase and diaphorase, absence of malate, 3 h): 0.25
Formation of formazan dyes, absorbance, Means 4 h ([7]; Malate dehydrogenase and diaphorase, absence of malate, 4 h): 0.21
Formation of formazan dyes, absorbance, Means 6 h ([7]; Malate dehydrogenase and diaphorase, absence of malate, 6 h): 0.22
Formation of formazan dyes, absorbance, Means 8 h ([7]; Malate dehydrogenase and diaphorase, absence of malate, 8 h): 0.23
Formation of formazan dyes, absorbance, Means 10 h ([7]; Malate dehydrogenase and diaphorase, absence of malate, 10 h): 0.26
Formation of formazan dyes, absorbance, Means 12 h ([7]; Malate dehydrogenase and diaphorase, absence of malate, 12 h): 0.25
reduction of tetrazolium dye in the absence of substrate malate ([7]; malate dehydrogenase and diaphorase (TABLE 9)): remained largely in oxidized forms
Absorbance, formation of formazan dyes (Means) (Malate dehydrogenase [8]; 0 h): 2.40
Absorbance, formation of formazan dyes (Means) (Malate dehydrogenase [8]; 1 h): 3.33
Absorbance, formation of formazan dyes (Means) (Malate dehydrogenase [8]; 2 h): 3.42
Absorbance, formation of formazan dyes (Means) (Malate dehydrogenase [8]; 3 h): 3.38
Absorbance, formation of formazan dyes (Means) (Malate dehydrogenase [8]; 4 h): 3.38
Absorbance, formation of formazan dyes (Means) (Malate dehydrogenase [8]; 6 h): 3.27
Absorbance, formation of formazan dyes (Means) (Malate dehydrogenase [8]; 8 h): 3.26
Absorbance, formation of formazan dyes (Means) (Malate dehydrogenase [8]; 10 h): 3.18
Absorbance, formation of formazan dyes (Means) (Malate dehydrogenase [8]; 12 h): 3.09
Absorbance, formation of formazan dyes (Means) (diaphorase [9]; 0 h): 0.16
Absorbance, formation of formazan dyes (Means) (diaphorase [9]; 1 h): 0.25
Absorbance, formation of formazan dyes (Means) (diaphorase [9]; 2 h): 0.26
Absorbance, formation of formazan dyes (Means) (diaphorase [9]; 3 h): 0.22
Absorbance, formation of formazan dyes (Means) (diaphorase [9]; 4 h): 0.17
Absorbance, formation of formazan dyes (Means) (diaphorase [9]; 6 h): 0.20
Absorbance, formation of formazan dyes (Means) (diaphorase [9]; 8 h): 0.16
Absorbance, formation of formazan dyes (Means) (diaphorase [9]; 10 h): 0.13
Absorbance, formation of formazan dyes (Means) (diaphorase [9]; 12 h): 0.14
Formation of formazan dyes, absorbance, Means 0 h (diaphorase [12]; 0 h): 3.21
Formation of formazan dyes, absorbance, Means 1 h (diaphorase [12]; 1 h): 3.24
Formation of formazan dyes, absorbance, Means 2 h (diaphorase [12]; 2 h): 3.22
Formation of formazan dyes, absorbance, Means 3 h (diaphorase [12]; 3 h): 3.20
Formation of formazan dyes, absorbance, Means 4 h (diaphorase [12]; 4 h): 3.27
Formation of formazan dyes, absorbance, Means 6 h (diaphorase [12]; 6 h): 3.29
Formation of formazan dyes, absorbance, Means 8 h (diaphorase [12]; 8 h): 3.28
Formation of formazan dyes, absorbance, Means 10 h (diaphorase [12]; 10 h): 3.28
Formation of formazan dyes, absorbance, Means 12 h (diaphorase [12]; 12 h): 3.28
Compound: Cc1nc(-[n+]2nc(-c3cccc(OCC(=O)O)c3)nn2-c2ccc(S(=O)(=O)[O-])cc2)sc1C [MTS, 3-(4,5-dimethylthiazol-2-yl)-5-(3-carboxymethoxyphenyl)-2-(4-sulfophenyl)-2H-tetrazolium, inner salt]
reduction to formazan dyes by pooled oral lavage (oral lavage [1]; pooled oral lavage of high bleeder group, diaphorase, no added malate (TABLE 11)): changed to formazan dyes in a significant amount
Absorbance, formation of formazan dyes (Means) ([4]; 0 h): 2.33
Absorbance, formation of formazan dyes (Means) ([4]; 1 h): 2.41
Absorbance, formation of formazan dyes (Means) ([4]; 2 h): 2.44
Absorbance, formation of formazan dyes (Means) ([4]; 3 h): 2.47
Absorbance, formation of formazan dyes (Means) ([4]; 4 h): 2.27
Absorbance, formation of formazan dyes (Means) ([4]; 6 h): 2.38
Absorbance, formation of formazan dyes (Means) ([4]; 8 h): 2.41
Absorbance, formation of formazan dyes (Means) ([4]; 10 h): 2.45
Absorbance, formation of formazan dyes (Means) ([4]; 12 h): 2.40
Absorbance, formation of formazan dyes (Means) (oral lavage [5]; 0 h): 0.87
Absorbance, formation of formazan dyes (Means) (oral lavage [5]; 1 h): 1.50
Absorbance, formation of formazan dyes (Means) (oral lavage [5]; 2 h): 1.82
Absorbance, formation of formazan dyes (Means) (oral lavage [5]; 3 h): 2.08
Absorbance, formation of formazan dyes (Means) (oral lavage [5]; 4 h): 1.94
Absorbance, formation of formazan dyes (Means) (oral lavage [5]; 6 h): 2.32
Absorbance, formation of formazan dyes (Means) (oral lavage [5]; 8 h): 2.51
Absorbance, formation of formazan dyes (Means) (oral lavage [5]; 10 h): 2.66
Absorbance, formation of formazan dyes (Means) (oral lavage [5]; 12 h): 2.74
Means absorbance 0 h ([10]; 0 h): 0.20
Means absorbance 1 h ([10]; 1 h): 0.20
Means absorbance 2 h ([10]; 2 h): 0.21
Means absorbance 3 h ([10]; 3 h): 0.23
Means absorbance 4 h ([10]; 4 h): 0.25
Means absorbance 6 h ([10]; 6 h): 0.33
Means absorbance 8 h ([10]; 8 h): 0.36
Means absorbance 10 h ([10]; 10 h): 0.47
Means absorbance 12 h ([10]; 12 h): 0.50
Absorbance, formation of formazan dyes (Means) (oral lavage [11]; 0 h): 0.78
Absorbance, formation of formazan dyes (Means) (oral lavage [11]; 1 h): 1.33
Absorbance, formation of formazan dyes (Means) (oral lavage [11]; 2 h): 1.69
Absorbance, formation of formazan dyes (Means) (oral lavage [11]; 3 h): 1.90
Absorbance, formation of formazan dyes (Means) (oral lavage [11]; 4 h): 1.87
Absorbance, formation of formazan dyes (Means) (oral lavage [11]; 6 h): 2.27
Absorbance, formation of formazan dyes (Means) (oral lavage [11]; 8 h): 2.60
Absorbance, formation of formazan dyes (Means) (oral lavage [11]; 10 h): 2.89
Absorbance, formation of formazan dyes (Means) (oral lavage [11]; 12 h): 3.22

From US20180320217A1, “METHODS FOR SAMPLING AND MEASURING ORAL LAVAGE PROTEINS” (The Procter & Gamble Company, priority 2017, published 2018)
